Measurements published in patent US5260276A, “Linear and monocyclic endothelin antagonists” (Warner-Lambert Company, priority 1991, dated 1993).
pIC50: −log10 of the molar value. Where a SMILES comes first, the peptide text is derived from it. Bridges are numbered along the chain shown (N, C = ends). Where no end group is shown, it is not given here. [ ]: non-standard residue; d: D form. Ava = NCCCCC(=O)O

Tests used:
[1] = molecular target: endothelin receptor ([125I]-ET-1 binding), rat heart ventricle; assay: Inhibition of [125I]-ET-1 binding in a receptor assay, rat heart ventricle; settings: [125I]-ET-1, rat heart ventricle 10 μg, 37° C., 2 hours
Procedure: The compounds of Formula I are valuable antagonists of endothelin. […] Thus, the compounds of Formula I were tested for their ability to inhibit [^125 I]-ET-1([^125 I]-Endothelin-1) binding in a receptor assay. The binding of the compounds of Formula I is determined by incubation (37° C., 2 hours) of a compound of Formula I with [^125 I]-ET-1 and the tissue (rat heart ventricle (10 μg)) in 50 mM Tris(hydroxymethyl)aminomethane hydrochloride (Tris-HCl) (pH 7.4), 5 mM ethylenediamine tetraacetic acid (EDTA), 2 mM ethylene glycol bis(β-aminoethyl ether)N,N,N',N'-tetraacetic acid (EGTA), 100 μM phenylmethylsulfonyl fluoride (PMSF), and 100 μM bacitracin containing protease inhibitors (total volume of 0.5 mL). IC50 values are calculated by weighing nonlinear regression curve-fitting to the mass-action (Langmuir) equation. The functional activity of compounds of Formula I is determined in Rat-1 cells by measuring intracellular levels of second messengers. Thus, cells are prelabeled with [^3 H]-inositol and endothelin-stimulated accumulation of total [^3 H]-inositol phosphates in the presence of Li^+ is monitored using anion exchange chromatography as described by Muldoon, L. L., et al, Journal of Biological Chemistry, Volume 264, pages 8529-8536 (1989) and Dudley, D. T., et al, Molecular Pharmacology, Volume 38, pages 370-377 (1990). Antagonist activity is assessed as the ability of added compounds to reduce endothelin stimulated inositol phosphate accumulation. The data in the table show the endothelin antagonist activity of representative compounds of Formula I.

[2] = system: ET receptor, selected tissues; settings: relative to ET-1; cited from earlier work

Compound	pIC50 [1]	fold less functional activity [2]
CC[C@H](C)[C@H](NC(=O)[C@H](CC(=O)O)NC(=O)[C@H](CC(C)C)NC(=O)[C@H](Cc1c[nH]cn1)NC(=O)[C@@H]1CSSC[C@H](N)C(=O)N[C@@H](CO)C(=O)NCCCCC(=O)N[C@@H](C(C)C)C(=O)N[C@@H](Cc2ccc(O)cc2)C(=O)N[C@@H](Cc2ccccc2)C(=O)N1)C(=O)N[C@H](C(=O)N[C@@H](Cc1c[nH]c2ccccc12)C(=O)O)[C@@H](C)CC [Example 5] (H-CS[Ava]VYFCHLDIIW-OH; disulfide 1-7; N-terminus and C-terminus assumed)	5.74	–
CC[C@H](C)[C@H](NC(=O)[C@H](CC(=O)O)NC(=O)[C@H](CC(C)C)NC(=O)[C@H](Cc1c[nH]cn1)NC(=O)[C@@H]1CSSC[C@H](N)C(=O)N[C@@H](CO)C(=O)N[C@@H](CC(=O)O)C(=O)N[C@@H](CC(C)C)C(=O)N[C@@H](CCC(=O)O)C(=O)N[C@@H](C(C)C)C(=O)N[C@@H](Cc2ccc(O)cc2)C(=O)N[C@@H](Cc2ccccc2)C(=O)N1)C(=O)N[C@H](C(=O)N[C@@H](Cc1c[nH]c2ccccc12)C(=O)O)[C@@H](C)CC [Example 10] (H-CSDLEVYFCHLDIIW-OH; disulfide 1-9)	5.49	–
CC[C@@H](C)[C@@H](NC(=O)[C@@H](NC(=O)[C@H](CC(=O)O)NC(=O)[C@H](CC(C)C)NC(=O)[C@H](Cc1c[nH]cn1)NC(=O)[C@@H]1CSSC[C@H](N)C(=O)N[C@@H](CO)C(=O)N[C@@H](CO)C(=O)N[C@@H](CO)C(=O)N[C@@H](C(C)C)C(=O)N[C@@H](Cc2ccc(O)cc2)C(=O)N[C@@H](Cc2ccccc2)C(=O)N1)[C@@H](C)CC)C(=O)N[C@@H](Cc1c[nH]c2ccccc12)C(=O)O [Example 14] (H-CSSSVYFCHLDI[dI]W-OH; disulfide 1-8; N-terminus assumed)	5.59	–
ET[1-20]: endothelin-1 fragment 1-20, lacking the C-terminal amino acid Trp-21 (CSCSSLMDKECVYFCHLDII; ends and bridges not checked; cysteine pairing not given here; UniProt P05305 53-72, looked up, fragment)	–	approximately 1000 fold
